According to PubChem BioAssay (NCI):
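Values below derive from 48-hour exposures of cells grown in 96-well plates, with endpoints linearly interpolated between the two concentrations bracketing the appropriate inhibition level. TGI marks complete inhibition of growth.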

Legend:
Experiment in all cases: NCI tumour cell line growth inhibition, 48 h
M19-MEL melanoma = tested on: M19-MEL melanoma
786-0 renal = tested on: 786-0 renal
U251 CNS = tested on: U251 CNS
XF 498 CNS = tested on: XF 498 CNS
MALME-3M melanoma = tested on: MALME-3M melanoma
OVCAR-8 ovarian = tested on: OVCAR-8 ovarian
HL-60(TB) leukemia = tested on: HL-60(TB) leukemia
LXFL 529 NSCLC = tested on: LXFL 529 NSCLC
SF-295 CNS = tested on: SF-295 CNS
KM20L2 colon = tested on: KM20L2 colon
DMS 114 small cell lung = tested on: DMS 114 small cell lung
A549 NSCLC = tested on: A549 NSCLC
UACC-257 melanoma = tested on: UACC-257 melanoma
NCI-H226 lung = tested on: NCI-H226 lung
NCI-H23 lung = tested on: NCI-H23 lung
SNB-75 CNS = tested on: SNB-75 CNS
HOP-62 NSCLC = tested on: HOP-62 NSCLC
TK-10 renal = tested on: TK-10 renal
SK-MEL-5 melanoma = tested on: SK-MEL-5 melanoma
OVCAR-4 ovarian = tested on: OVCAR-4 ovarian
COLO 205 colon = tested on: COLO 205 colon
CCRF-CEM leukemia = tested on: CCRF-CEM leukemia
MOLT-4 leukemia = tested on: MOLT-4 leukemia
HT29 colon = tested on: HT29 colon
HCC-2998 colon = tested on: HCC-2998 colon
SW-620 colon = tested on: SW-620 colon
SK-MEL-28 melanoma = tested on: SK-MEL-28 melanoma
A498 renal = tested on: A498 renal
SN12C renal = tested on: SN12C renal
DLD-1 colon = tested on: DLD-1 colon
RXF 393 renal = tested on: RXF 393 renal
SNB-19 CNS = tested on: SNB-19 CNS
EKVX NSCLC = tested on: EKVX NSCLC
UO-31 renal = tested on: UO-31 renal
SNB-78 CNS = tested on: SNB-78 CNS
RPMI-8226 leukemia = tested on: RPMI-8226 leukemia
M14 melanoma = tested on: M14 melanoma
HCT-116 colon = tested on: HCT-116 colon
HOP-18 NSCLC = tested on: HOP-18 NSCLC
OVCAR-3 ovarian = tested on: OVCAR-3 ovarian
KM12 colon = tested on: KM12 colon
LOX IMVI melanoma = tested on: LOX IMVI melanoma
SF-268 CNS = tested on: SF-268 CNS
NCI-H460 lung = tested on: NCI-H460 lung
HOP-92 NSCLC = tested on: HOP-92 NSCLC
UACC-62 melanoma = tested on: UACC-62 melanoma
ACHN renal = tested on: ACHN renal
NCI-H522 lung = tested on: NCI-H522 lung
K-562 leukemia = tested on: K-562 leukemia
SR leukemia = tested on: SR leukemia
SK-OV-3 ovarian = tested on: SK-OV-3 ovarian
IGROV1 ovarian = tested on: IGROV1 ovarian
SF-539 CNS = tested on: SF-539 CNS
OVCAR-5 ovarian = tested on: OVCAR-5 ovarian
MDA-MB-231 breast = tested on: MDA-MB-231 breast
SK-MEL-2 melanoma = tested on: SK-MEL-2 melanoma
BT-549 breast = tested on: BT-549 breast
HCT-15 colon = tested on: HCT-15 colon
MDA-MB-435 = tested on: MDA-MB-435
NCI/ADR-RES ovarian = tested on: NCI/ADR-RES ovarian
DU-145 prostate = tested on: DU-145 prostate
MCF7 breast = tested on: MCF7 breast
T-47D breast = tested on: T-47D breast
PC-3 prostate = tested on: PC-3 prostate
MDA-N = tested on: MDA-N
HS 578T breast = tested on: HS 578T breast
CAKI-1 renal = tested on: CAKI-1 renal

Structure (SMILES): COC1(OC)CC2C(=O)N(Cc3ccccc3)C1C=C2S(=O)(=O)c1ccccc1 (configuration not stated)
- TGI (M19-MEL melanoma): 30.4 µM
- TGI (786-0 renal): 38.2 µM
- TGI (U251 CNS): 29 µM
- TGI (XF 498 CNS): 31.7 µM
- TGI (MALME-3M melanoma): 39.6 µM
- TGI (OVCAR-8 ovarian): 40.5 µM
- TGI (HL-60(TB) leukemia): 36.7 µM
- TGI (LXFL 529 NSCLC): 34.2 µM
- TGI (SF-295 CNS): > 100 µM
- TGI (KM20L2 colon): 33.1 µM
- TGI (DMS 114 small cell lung): 31.9 µM
- TGI (A549 NSCLC): 64.2 µM
- TGI (UACC-257 melanoma): 34.5 µM
- TGI (NCI-H226 lung): 47.3 µM
- TGI (NCI-H23 lung): 38.1 µM
- TGI (SNB-75 CNS): 93.9 µM
- TGI (HOP-62 NSCLC): > 100 µM
- TGI (TK-10 renal): 49.1 µM
- TGI (SK-MEL-5 melanoma): 26.7 µM
- TGI (OVCAR-4 ovarian): 53.5 µM
- TGI (COLO 205 colon): 22 µM
- TGI (CCRF-CEM leukemia): 44.9 µM
- TGI (MOLT-4 leukemia): 50.3 µM
- TGI (HT29 colon): 33.8 µM
- TGI (HCC-2998 colon): 33.6 µM
- TGI (SW-620 colon): 28.5 µM
- TGI (SK-MEL-28 melanoma): 31.9 µM
- TGI (A498 renal): 45 µM
- TGI (SN12C renal): 30.1 µM
- TGI (DLD-1 colon): 27.6 µM
- TGI (RXF 393 renal): 29 µM
- TGI (SNB-19 CNS): 54.7 µM
- TGI (EKVX NSCLC): 33.1 µM
- TGI (UO-31 renal): 65.1 µM
- TGI (SNB-78 CNS): 74.4 µM
- TGI (RPMI-8226 leukemia): 63.1 µM
- TGI (M14 melanoma): 35 µM
- TGI (HCT-116 colon): 26.7 µM
- TGI (HOP-18 NSCLC): 31.9 µM
- TGI (OVCAR-3 ovarian): 28 µM
- TGI (KM12 colon): 31.6 µM
- TGI (LOX IMVI melanoma): 28.2 µM
- TGI (SF-268 CNS): > 100 µM
- TGI (NCI-H460 lung): 38.6 µM
- TGI (HOP-92 NSCLC): 54.1 µM
- TGI (UACC-62 melanoma): 31.3 µM
- TGI (ACHN renal): 44.4 µM
- TGI (NCI-H522 lung): 27.7 µM
- TGI (K-562 leukemia): 63.2 µM
- TGI (SR leukemia): 46.3 µM
- TGI (SK-OV-3 ovarian): > 100 µM
- TGI (IGROV1 ovarian): > 100 µM
- TGI (SF-539 CNS): 32.7 µM

Structure (SMILES): Ic1cccc(/C=C/CN2CCN(CCOC(c3ccccc3)c3ccccc3)CC2)c1
- TGI (OVCAR-5 ovarian): 36.9 µM
- TGI (786-0 renal): 33.7 µM
- TGI (U251 CNS): 29.7 µM
- TGI (MALME-3M melanoma): 39.3 µM
- TGI (OVCAR-8 ovarian): 30 µM
- TGI (MDA-MB-231 breast): 32.4 µM
- TGI (HL-60(TB) leukemia): 30.9 µM
- TGI (SF-295 CNS): 33.1 µM
- TGI (SK-MEL-2 melanoma): 38.3 µM
- TGI (A549 NSCLC): 45 µM
- TGI (BT-549 breast): 31.4 µM
- TGI (UACC-257 melanoma): 31.4 µM
- TGI (HCT-15 colon): 34.4 µM
- TGI (NCI-H226 lung): 40.2 µM
- TGI (NCI-H23 lung): 40 µM
- TGI (MDA-MB-435): 30.4 µM
- TGI (SNB-75 CNS): 37.6 µM
- TGI (HOP-62 NSCLC): 32.6 µM
- TGI (TK-10 renal): 31.6 µM
- TGI (NCI/ADR-RES ovarian): 34.7 µM
- TGI (SK-MEL-5 melanoma): 32.2 µM
- TGI (OVCAR-4 ovarian): 51.1 µM
- TGI (COLO 205 colon): 65.1 µM
- TGI (CCRF-CEM leukemia): 32.4 µM
- TGI (DU-145 prostate): 28.3 µM
- TGI (MOLT-4 leukemia): 35.9 µM
- TGI (HT29 colon): 30.3 µM
- TGI (MCF7 breast): 30.5 µM
- TGI (HCC-2998 colon): 20.4 µM
- TGI (T-47D breast): 33.3 µM
- TGI (SW-620 colon): > 100 µM
- TGI (SK-MEL-28 melanoma): 50.1 µM
- TGI (A498 renal): 31.7 µM
- TGI (SN12C renal): 29.6 µM
- TGI (RXF 393 renal): 27.5 µM
- TGI (SNB-19 CNS): 34.9 µM
- TGI (EKVX NSCLC): 41.4 µM
- TGI (UO-31 renal): 29 µM
- TGI (RPMI-8226 leukemia): 14.3 µM
- TGI (M14 melanoma): 38.8 µM
- TGI (PC-3 prostate): 66.3 µM
- TGI (HCT-116 colon): 26.8 µM
- TGI (OVCAR-3 ovarian): 32.4 µM
- TGI (KM12 colon): 31 µM
- TGI (LOX IMVI melanoma): 26.8 µM
- TGI (SF-268 CNS): > 100 µM
- TGI (NCI-H460 lung): 32.4 µM
- TGI (HOP-92 NSCLC): 29.4 µM
- TGI (UACC-62 melanoma): 37.4 µM
- TGI (ACHN renal): > 100 µM
- TGI (MDA-N): 41.9 µM
- TGI (NCI-H522 lung): 36.8 µM
- TGI (K-562 leukemia): 23.9 µM
- TGI (SR leukemia): 28.9 µM
- TGI (SK-OV-3 ovarian): 63.4 µM
- TGI (IGROV1 ovarian): 40.9 µM
- TGI (HS 578T breast): 76.2 µM
- TGI (CAKI-1 renal): 41.4 µM
- TGI (SF-539 CNS): 39.8 µM
